Source: patent US4591590A, “Benzhydrylpiperazine derivatives, processes for the preparation thereof and pharmaceutical composition comprising the same” (Fujisawa Pharmaceutical Co., Ltd., priority 1982, dated 1986)
Where a name gives a salt, the structure may show the parent alone.

Test system: anaphylactic asthma in guinea-pigs
Experiment: Antagonism to anaphylactic asthma in guinea-pigs (passively sensitized with rabbit anti-egg albumin antiserum, egg albumin aerosol challenge; survival)
Type: in vivo, guinea-pig (male Hartley strain)
Settings: 10 mg/kg, oral, 30 minutes before egg albumin aerosol challenge; dose group 3 or 5 animals (* = 3 guinea-pigs: Examples 10-(5) and 11)
Method: Equal volumes of a saline solution of egg albumin (200 mg/ml) and of Freund's Complete Adjuvant were mixed and emulsified. Each male New Zealand white strain rabbits, each weighing 2 to 2.5 kg., received an intramuscular injection of 0.5 ml of the emulsion in the left and right thigh regions. One week later, they received an intradermal injection of 0.25 ml of a saline solution of egg albumin (concentration: 20 mg/ml) in the different four sites of the dorsal skin surface three times every other week. Blood samples were collected from the carotid artery one week after the last injection.
The level of anaphylactic anti-egg albumin antibodies in pools of sera were determined by passive cutaneous anaphylaxis (PCA) reactions using shaven Hartley strain test guinea-pigs.
Antiserum was serially diluted (two fold) in saline and 0.1 ml of each antiserum dilution were injected intradermally into the dorsal skin surface of the test guinea-pigs. 24 hours after intradermal sensitization,Egg albumin-specific PCA reactions were elicited by intravenous injection of 10 mg of egg albumin in 1 ml of 1% Evans blue dye dissolved in saline. Reactions were read and recorded as the highest dilution of serum evoking threshold PCA reactivity (5 mm diameter).
Male Hartley strain guinea-pigs, weighing 305 to 400 g, were used. Animals were sensitized by an intravenous injection of rabbit antiserum against egg albumin (4000 PCA titer) with 0.5 ml/animal. After 24 hours, animals were placed individually in a plastic chamber of 5.3 liter volume. An aerosol of 5% egg albumin solution was sprayed in the chamber at a rate of 0.16 ml/min with a commercial nebulizer. The test compounds were given to the animals orally 30 minutes before the challenge with the egg albumin solution. Each dose group consisted of 3 or 5 animals. The inhibitory effect of the test compounds was determined from the number of surviving animals more than 2 hours after spray of the antigen.

Structure (SMILES)	Inhibitory effect of anaphylactic asthma in guinea-pig (from number of surviving animals more than 2 hours after spray of the antigen) [%]
CC(=O)CCCN1CCN(C(c2ccccc2)c2ccccc2)CC1.O=C(O)/C=C/C(=O)O [Example 1, 1-(4-oxo-1-pentyl)-4-benzhydrylpiperazine fumarate]	100
Cl.Cl.O=C(NCCCN1CCN(C(c2ccccc2)c2ccccc2)CC1)c1ccccc1 [Example 7, 1-(3-benzoylaminopropyl)-4-benzhydrylpiperazine dihydrochloride]	100
COc1ccccc1C(=O)NCCCN1CCN(C(c2ccccc2)c2ccccc2)CC1.Cl.Cl [Example 10-(2), 1-[3-(2-Methoxybenzoylamino)propyl]-4-benzhydrylpiperazine dihydrochloride]	80
CS(=O)(=O)Nc1ccccc1C(=O)NCCCN1CCN(C(c2ccccc2)c2ccccc2)CC1 [Example 10-(5), 1-[3-(2-Methanesulfonylaminobenzoylamino)propyl]-4-benzhydrylpiperazinedihydrochloride]	100
O=C(Cn1c(=O)sc2ccccc21)NCCCN1CCN(C(c2ccccc2)c2ccccc2)CC1 [Example 10-(8), 1-[3-[2-(2-Oxo-benzothiazolin-3-yl)acetylamino]propyl]-4-benzhydrylpiperazine]	80
CC(=O)NCCCN1CCN(C(c2ccccc2)c2ccccc2)CC1 [Example 11, 1-(3-acetylaminopropyl)-4-benzhydrylpiperazine]	100
CS(=O)(=O)Nc1cccc(CN2CCN(C(c3ccccc3)c3ccccc3)CC2)n1.Cl.Cl [Example 13, 1-(6-methanesulfonylaminopyridin-2-ylmethyl)-4-benzhydrylpiperazine dihydrochloride]	100
